From patent publication US20050202032A1, “Use of neglected target tissue antigens in modulation of immune responses” (The Regents of the University of California, priority 1998, published 2005)

B1: GAD: Mouse GAD65, glutamic acid decarboxylase, β cell autoantigen (protein, UniProt P48320 1-585, looked up)
Glutamate decarboxylase 2: MASPGSGFWSFGSEDGSADPENPGTARAWCQVAQKFTGGIGNKLCALLYGDSGKPAEGGGSVTSRAATGKVACTCDQKPCNCPKGDVNYAFLHATDLLPACDGERPTLAFLQDVMNILLQYVVKSFDRSTKVIDFHYPNELLQEYNWELADQPQNLEEILTHCQTTLKYAIKTGHPRYFNQLSTGLDMVGLAADWLTSTANTNMFTYEIAPVFVLLEYVTLKKMREIIGWPGGSGDGIFSPGGAISNMYAMLIARYKMFPEVKEKGMAAVPRLIAFTSEHSHFSLKKGAAALGIGTDSVILIKCDERGKMIPSDLERRILEVKQKGFVPFLVSATAGTTVYGAFDPLLAVADICKKYKIWMHVDAAWGGGLLMSRKHKWKLSGVERANSVTWNPHKMMGVPLQCSALLVREEGLMQSCNQMHASYLFQQDKHYDLSYDTGDKALQCGRHVDVFKLWLMWRAKGTTGFEAHIDKCLELAEYLYTIIKNREGYEMVFDGKPQHTNVCFWFVPPSLRTLEDNEERMSRLSKVAPVIKARMMEYGTTMVSYQPLGDKVNFFRMVISNPAATHQDIDFLIEEIERLGQDL

How the values were obtained:
[1] = system: splenic T cells of NOD mice; assay: T cell proliferation: immunogenicity and spontaneous recall responses to candidate NTTA peptides (Example 4); format: cell-based; details: peptide used as the immunizant; FIG. 4
Description: T-cell proliferation assays. Female NOD mice were injected i.p. at 8 weeks of age with 100 μg antigen, or control β-galactosidase, in 100 μl of 50% IFA. The mice were reinjected 2 weeks later. At 12 weeks of age, splenic T-cells were tested for proliferative responses to GAD65, hsp277, β-galactosidase and the HEL peptide, as previously described.
Transgenic animal models have shown that neoantigens which are expressed at low levels in peripheral tissues often have little impact on T cell education and elicit strong immune responses after immunization (4-8). Identifying NTTAs that were specifically expressed in the β cells at low levels was therefore preferred. The DNA sequence banks were screened for cDNA sequences isolated from mouse β cell subtraction libraries. Mouse cDNA sequences were selected from both known and unknown β cell cDNAs and from both β-cell specific and ubiquitous antigens, some of which appeared to be expressed only at low levels specifically in β cells. Other cDNAs that were expressed at higher levels in the β cells, or in other tissues were selected by Northern analysis for comparison purposes. From the open reading frames of the candidate cDNAs we synthesized a dozen peptides which contained a consensus NOD class II MHC binding motif (54, 55). We identified 4 peptides (sequences provided above) from 3 different mouse B cell proteins that were immunogenic in NOD mice (FIG. 4).
The remaining peptides tested were peptide 1, a 15mer from calbindin having the sequence EEFMKTWRKYDTDHS; • peptide 3, also a 15mer from calbindin having the sequence LKDLCEKNKQELDIN; • peptide 5, a 15mer from clone 38 in turn derived from a beta cell specific cDNA library (Neophytou, P. et al Diabetes, 45:127, 1996) having the sequence ILKMDHHCPWVNNCV; and • peptide 8 from islet amyloid polypeptide having the sequence GKRNAAGDPNRESLDFL.
In addition, using a set of overlapping GAD peptides, two GAD peptides have been identified which are immunogenic in NOD mice (GADp18 and GADp27; sequences provided under ANTIGENS, above) but which are ignored by their spontaneous autoimmune responses (data not shown). […] These conclusions can be used to advantage for the development of human NTTAs as immunotherapeutics for autoimmune disease, and other abnormal inflammatory immune responses.

[2] = system: splenic T cells of NOD mice; assay: as above; format: cell-based; details: at any stage of NOD mouse development, no immunization
[3] = system: irradiated young NOD mice receiving T cells from diabetic NOD mice; assay: Adoptive transfer of IDDM (Example 5); format: in vivo; details: cells from treated mice co-transferred with T cells from diabetic NOD mice
Description: Adoptive transfer of diabetes. At a specified time, NOD mice were injected i.p. with 100 μg GAD65 (or other specified antigen) or control β-galactosidase in 100 μl of 50% IFA and reinjected at 14 weeks of age. Five weeks later, single-cell suspensions of splenic mononuclear cells were prepared from each group, as well as from unmanipulated diabetic NOD mice. Ten million splenic mononuclear cells from the unmanipulated diabetic mice were mixed with an equal number of splenic mononuclear cells from GAD65 β-galactosidase-treated mice and injected intravenously into 5-week-old female NOD mice that had received 500 rad-γ-irradiation. Another control group received […] splenic mononuclear cells obtained only from unmanipulated diabetic mice.
Splenic T cells from NTTA peptide treated mice were co-transferred with T cells from diabetic NOD mice into irradiated young NOD mice. All of the mice which received cells from mice treated with a control immunogenic mouse serum albumin peptide (MSA 560-574) developed IDDM within 5 weeks. […] Thus, NTTAs are capable of inducing adoptively transferable regulatory responses which can down-regulate pathogenic T cells.

[4] = system: T cell clones from immunized NOD mice; assay: Cytokine secretion of NTTA- and GADp35-reactive T cell clones (Example 9); format: cell-based; details: ELISPOT and antigen-stimulated culture supernatants
Description: NOD mice were immunized with a NTTA peptide or GADp35 in incomplete Freund's adjuvant (IFA). Two weeks later lymph node and splenic T cells were cultured with antigen, IL-2 and IL-4 together with irradiated NOD splenic cells and T cell clones were generated by limiting dilution. A NTTA 7 and a GADp35-reactive clone were characterized by ELISPOT and analysis of antigen-stimulated culture supernatants. Both clones secreted IL-4, and no IFN-γ in response to the corresponding antigen. Thus, these T cell clones appear to be Th2-type.

[5] = system: diabetic NOD mice with transplanted syngeneic islets; assay: Transplantation of syngeneic islets into diabetic NOD mice (Example 2); format: in vivo; details: antigen i.p. in IFA to recipient diabetic NOD mice prior to transplantation; FIG. 1
Description: Transplantation of islets. Female NOD mice were monitored for the onset of IDDM, after which the mice were maintained on 1.0 to 1.5 units insulin (Humulin U, Lilly) per day. At the time of IDDM onset, mice were injected with either 100 μg of GAD65, hsp277, insulin B-chain or control β-galactosidase i.p. in 50% IFA. Ten days later, the mice were reinjected. Ten days after the second treatment, 3000 freshly isolated islets from newborn NOD mice were transplanted into the space beneath the kidney capsule, and Humulin administration was discontinued. The mice were reinjected every two weeks. Recurrence of diabetes is defined as two consecutive blood glucose levels of greater than 13 mmol/l.
Based on the ability of autoantigen treatment to inhibit disease in pre-diabetic NOD mice with (1) we tested whether this treatment could also protect transplanted syngeneic β cells from the established autoimmune responses in diabetic NOD mice. Islets were transplanted into diabetic NOD mice that had been treated with β-galactosidase. […] The results are shown in FIG. 1, wherein data are presented as time post-transplantation at which hyperglycemia recurred. These findings correlate with the extent to which each autoantigen was able to promote Th2 immunity in newly hyperglycemic animals (see Example 3, below).

NOD mice = details: intraperitoneally in incomplete Freund's adjuvant early in the NOD mouse disease process (ref 1); cited from earlier work
[6] = system: antigen-specific T cells within islet infiltrates; assay: ELISPOT of single antigen-specific T cells from pancreatic islet infiltrates (Example 11); format: cell-based, NOD mice
Description: (§1) ELISPOT analysis. At a specified time, mice received a single i.p. injection of 100 μg β-galactosidase or GAD65 or other specified antigen in 50% IFA. Fourteen days later, splenic T-cells were isolated and the frequency of β-galactosidase and GAD65-specific T-cells secreting IL-4, IL-5 and IFN-γ was determined by using the ELISPOT technique as described (Forsthuber, T., et al., Science, 271:1728, 1996), with the exception that the treating antigen and β-galactosidase (100 μg/ml) were used as antigens, and 11B11 together with biotinylated BVD6-24G2 (PharMingen, San Diego, Calif.) was used for capture and detection of IL-4. The resulting spots were counted manually.
Monocytes were isolated from islets of 10-week old female NOD mice. 1000, 100 or 10 monocytes were mixed with 1 million irradiated splenic T cells and tested for IFNγ and IL-5 responses to B cell autoantigens, as well as control antigens, by ELISPOT.

[7] = system: splenic T cells of treated NOD mice; assay: ELISPOT of Th1/Th2 responses after neonatal autoantigen treatment (Example 8); format: cell-based; details: treated neonatally 100 μg i.p. in IFA, tested at 4 weeks in age; FIG. 10
Description: as §1
The data are represented as the mean number of spot forming colonies per million splenic T cells above background. The variation within, each group was <15%. Experimental and control mice were tested simultaneously (in triplicate) in two separate experiments (n=5/group).

Molecule | immunogenicity in NOD mice (proliferative T cell response after immunization) [1] | spontaneous proliferative splenic T cell recall responses [2] | further results
EEFMKTWRKYDTDHS [peptide 1] | did not contain determinants | – | –
ELKNFLKDLLEKANKTVDDT (homo sapiens) [Peptide 2] | immunogenic | did not detect | –
GKRNAAGDPNRESLDFL [peptide 8, from islet amyloid polypeptide] | did not contain determinants | – | –
ILKMDHHCPWVNNCV [peptide 5, 15mer from clone 38] | did not contain determinants | – | –
LIKPDRCHHCSVCDKC (homo sapiens) [Peptide 4] | immunogenic | did not detect | –
LKDLCEKNKQELDIN [peptide 3] | did not contain determinants | – | –
MSA 560-574: control immunogenic mouse serum albumin peptide 560-574 (KPKATAEQLKTVMDD) | – | – | time by which all recipient mice developed IDDM [3]: ≤ 5 weeks
NHLRATPVRSGSNPQ (homo sapiens) [Peptide 6] | immunogenic | did not detect | –
PEVKEKGMAAVPRLIAFTSE (homo sapiens) [GADp18] | immunogenic | ignored | –
PLQCSALLVREEGLMQSCNQ (homo sapiens) [GADp27] | immunogenic | ignored | –
TQRLANFLVRSSNNL (homo sapiens) [Peptide 7] | immunogenic | did not detect | IFN-γ secretion of reactive T cell clone in response to the corresponding antigen [4]: no; IL-4 secretion of reactive T cell clone in response to the corresponding antigen [4]: secreted
B1 | – | – | syngeneic islet graft survival (recurrence of hyperglycemia) [5]: greatly extended syngeneic islet graft survival; protection from IDDM (NOD mice): highly protective; IFNγ responses, number of T cells ([6]; 100 islet monocytes mixed with 1 million irradiated splenic T cells): 15; IFNγ responses, number of T cells ([6]; 1,000 islet monocytes mixed with 1 million irradiated splenic T cells, 10-week old female NOD mice): 123; Th2 and Th1 responses to the injected autoantigen [7]: both Th2 and Th1 responses
